Ends that are not written are not given here.
Experiments:
[1] = tested on: MMP-9; assay: MMP-9 activity, MMP colorimetric drug discovery kit; format: biochemical; conditions: 1.3 μM, 37°C 1 hour, 412 nm; three independent experiments
Procedure: (§1) The activity of MMPs was measured using MMP colorimetric drug discovery kits in a 96-well microtiter plate according to the manufacturer’s instructions. Different concentrations of the phosphinic peptides or 1.3 μM N-Isobutyl-N-(4-methoxyphenylsulfonyl)glycyl hydroxamic acid (NNGH), a positive inhibitor for MMPs, were, respectively, added to the assay mixtures containing MMP enzyme (MMP-2 or MMP-9; 9 mU/μL). The plates were then incubated at 37°C for 1 hour for enzyme reaction. After that, a final concentration of 100 μM colorimetric substrate (Ac-PLG-[2-mercapto-4-methyl-pentanoyl]-LGOC2H5) was added to each well and the plates were then read at 412 nm every minute for at least 20 minutes using PHERAStar FS microplate reader. The full enzyme activity (control) was measured without addition of any inhibitor or tested peptides. The reaction velocity (V) was determined by calculating the slope of the fitted line to the linear portion of the data collected. The slope of blank (without addition of MMP enzyme) was subtracted from all samples and the remaining activity of the enzyme was calculated using following formula.
(§2) %Enzymeactivity=V(inhibitor)/V(control)*100
(§3) Fig 7 Effect of KP phosphinic peptides on MMP-2 (A) or MMP-9 (B) enzyme activity. […] The maximum activity (control) was measured in the absence of inhibitors. […]

[2] = tested on: MMP-2; assay: MMP-2 activity, MMP colorimetric drug discovery kit; format: biochemical; conditions: 1.3 μM, 37°C 1 hour, 412 nm; three independent experiments
Procedure: as §1, §2, §3

[3] = tested on: cancer cell metastasis; conditions: ref [17]; cited from earlier work
Description: KPs inhibit metastasis in a variety of cancers, including melanoma, breast, endometrial, gastric ovarian cancers, and others. Therefore, KP analogues may act as inhibitors of cancer metastasis which is the major cause of cancer death.

## COc1ccc(S(=O)(=O)N(CC(=O)NO)CC(C)C)cc1 [NNGH, N-Isobutyl-N-(4-methoxyphenylsulfonyl)glycyl hydroxamic acid]
[1]
  inhibition of MMP-9 activity by positive control: almost completely inhibited
[2]
  inhibition of MMP-2 activity by positive control: almost completely inhibited

## KP-54: endogenous 54-amino acid peptide ligand of kisspeptin receptor (GTSLSPPPESSGSPQQPGLSAPHSRQIPAPQGAVLVQREKDLPNYNWNSFGLRF; ends and bridges not checked; UniProt Q15726 68-121, looked up)
[3]
  inhibition of cancer cell metastasis: inhibit cancer cell metastasis
